Assays:
[1] = system: MCF-7 breast tumour cell line; assay: Tumor cell proliferation assay (CellTiter-Glo), MCF-7; assay type: cell-based; conditions: Homo sapiens, MCF7, 72 h drug exposure, read-out: MCF-7 median IC50
phospho-AKT at S473 = assay: Cellular p-AKT1/2/3-S473 assay in KPL-4 cells; assay type: cell-based; conditions: Homo sapiens, KPL4; KPL-4 breast tumour cell line, compound treatment 2 hours; read-out: pAKT-S473 median IC50
[2] = target: His-tagged human recombinant kinase full-length Akt2 (Homo sapiens (Human), UniProt P31751); assay: Akt2 kinase assay (Akt2 TR-FRET assay); assay type: biochemical; conditions: 10 μM ATP, 60 min at 22° C., read-out: Akt2 median IC50
Sequence of His-tagged human recombinant kinase full-length Akt2 (P31751 whole entry): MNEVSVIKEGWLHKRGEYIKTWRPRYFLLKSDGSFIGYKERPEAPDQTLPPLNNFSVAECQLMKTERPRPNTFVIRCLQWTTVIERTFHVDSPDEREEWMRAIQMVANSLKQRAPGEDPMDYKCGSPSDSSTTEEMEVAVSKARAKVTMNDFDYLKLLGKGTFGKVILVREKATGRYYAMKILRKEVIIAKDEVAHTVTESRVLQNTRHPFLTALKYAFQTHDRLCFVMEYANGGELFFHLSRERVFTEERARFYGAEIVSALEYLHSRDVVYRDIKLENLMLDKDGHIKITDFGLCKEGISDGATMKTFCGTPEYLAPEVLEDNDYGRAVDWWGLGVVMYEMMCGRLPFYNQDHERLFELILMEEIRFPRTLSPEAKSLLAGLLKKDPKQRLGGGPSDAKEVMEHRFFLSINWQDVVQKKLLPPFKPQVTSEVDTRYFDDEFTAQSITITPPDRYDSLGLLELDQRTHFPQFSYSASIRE

[3] = system: KPL-4 breast cancer cell line; assay: Tumor cell proliferation assay (CellTiter-Glo), KPL-4; assay type: cell-based; conditions: Homo sapiens, KPL4, 72 h drug exposure, read-out: KLP-4 median IC50
Protocol: Biological Assay 4.0: Tumor Cell Proliferation Assays
Compounds were tested in a cell-based assay that measures the capacity of the compounds to inhibit tumour cell proliferation following a 72 h drug exposure. Cell viability is determined using CellTiter-Glow® (CTG, Promega, cat#G7571/2/3). The CellTiter-Glo® Luminescent Cell Viability Assay is a homogeneous method to determine the number of viable cells in culture.
Detection is based on using the luciferase reaction to measure the amount of ATP from viable cells. The amount of ATP in cells correlates with cell viability. Within minutes after a loss of membrane integrity, cells lose the ability to synthesize ATP, and endogenous ATPases destroy any remaining ATP; thus the levels of ATP fall precipitously.
For each cell line assayed, cells were plated onto a separate plate for determination of fluorescence at t=0 hour and t=72 hour time points. Following overnight incubation at 37° C., chemiluminescence values for the t=0 samples were determined after adding 10 μl medium and 100 μl CTG solution according to manufacture protocol. Plates for the t=72 hour time points were treated with compounds diluted into growth medium at ten times final concentration added in 10 μL to the cell culture plate. Cells were then incubated for 72 hours at 37° C. Chemiluminescence values for the t=72 hour samples were determined. […] Experiments were controlled using a reference compound as standard.

p-4E-BP1 at T70 = assay: Cellular p-4E-BP1-T70 assay in KPL-4 cells; assay type: cell-based; conditions: Homo sapiens, KPL4; KPL-4 breast tumour cell line, compound treatment 2 hours; read-out: P4EBP1-T70 median IC50
Protocol: The molecular mechanism of action was investigated in a set of experiments to assess the inhibition of the PI3K-AKT-mTOR pathway in responsive cell lines such as KPL-4 breast tumour cell line (PIK3CA^H1047R, HER2^O/E and hormone independent). The phospho-substrates of PI3K-AKT-mTOR axis were used as the read-outs to reflect pathway inhibition. Cells were seeded at 60-80% confluency per well in 96-well cell culture plates. After overnight incubation at 37° C. 5% CO2, cells were treated with compounds and vehicle at 37° C. for 2 hours. […] All measurements where at least done in duplicates and confirmed by independent repetition.

[4] = target: His-tagged human recombinant kinase full-length Akt1 (Homo sapiens (Human), UniProt P31749); assay: Akt1 kinase assay (Akt1 TR-FRET assay); assay type: biochemical; conditions: 10 μM ATP, 60 min at 22° C., read-out: Akt1 median IC50
Sequence of His-tagged human recombinant kinase full-length Akt1 (P31749 whole entry): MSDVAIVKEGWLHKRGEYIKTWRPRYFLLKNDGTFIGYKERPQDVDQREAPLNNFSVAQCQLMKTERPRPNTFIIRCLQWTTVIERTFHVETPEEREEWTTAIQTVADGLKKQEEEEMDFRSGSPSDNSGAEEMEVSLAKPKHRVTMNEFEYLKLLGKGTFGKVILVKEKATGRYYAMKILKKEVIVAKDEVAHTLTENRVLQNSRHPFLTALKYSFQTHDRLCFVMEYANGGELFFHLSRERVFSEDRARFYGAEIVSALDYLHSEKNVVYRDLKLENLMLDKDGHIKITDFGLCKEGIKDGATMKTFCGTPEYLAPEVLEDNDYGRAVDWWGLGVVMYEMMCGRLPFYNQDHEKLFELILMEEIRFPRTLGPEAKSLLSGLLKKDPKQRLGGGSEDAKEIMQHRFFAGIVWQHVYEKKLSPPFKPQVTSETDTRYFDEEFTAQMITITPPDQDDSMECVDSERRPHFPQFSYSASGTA
Description: Biological Assay 1.0: Akt1 Kinase Assay
Akt1 inhibitory activity of compounds of the present invention was quantified employing the Akt1 TR-FRET assay as described in the following paragraphs.
His-tagged human recombinant kinase full-length Akt1 expressed in insect cells was purchased form Invitrogen (part number PV 3599). As substrate for the kinase reaction the biotinylated peptide biotin-Ahx-[sequence] (C-terminus in amide form) was used which can be purchased e.g. from the company Biosynthan GmbH (Berlin-Buch, Germany).
For the assay 50 nl of a 100 fold concentrated solution of the test compound in DMSO was pipetted into a black low volume 384 well microtiter plate (Greiner Bio-One, Frickenhausen, Germany), 2 μl of a solution of Akt1 in assay buffer [50 mM TRIS/HCl pH 7.5, 5 mM MgCl2, 1 mM dithiothreitol, 0.02% (v/v) Triton X-100 (Sigma)] were added and the mixture was incubated for 15 min at 22° C. to allow pre-binding of the test compounds to the enzyme before the start of the kinase reaction. Then the kinase reaction was started by the addition of 3 μl of a solution of adenosine-tri-phosphate (ATP, 16.7 μM=>final conc. in the 5 μl assay volume is 10 μM) and substrate (1.67 μM=>final conc. in the 5 μl assay volume is 1 μM) in assay buffer and the resulting mixture was incubated for a reaction time of 60 min at 22° C. The concentration of Akt1 in the assay was adjusted depending of the activity of the enzyme lot and was chosen appropriate to have the assay in the linear range, typical enzyme concentrations were in the range of about 0.05 ng/μl (final conc. in the 5 μl assay volume). The reaction was stopped by the addition of 5 μl of a solution of HTRF detection reagents (200 nM streptavidine-XL665 [Cisbio] and 1.5 nM anti-phosho-Serine antibody [Millipore, cat. #35-001] and 0.75 nM LANCE Eu-W 1024 labeled anti-mouse IgG antibody [Perkin Elmer]) in an aqueous EDTA-solution (100 mM EDTA, 0.1% (w/v) bovine serum albumin in 50 mM HEPES/NaOH pH 7.5). The resulting mixture was incubated 1 h at 22° C. to allow the binding of the biotinylated phosphorylated peptide to the streptavidine-XL665 and the antibodies. Subsequently the amount of phosphorylated substrate was evaluated by measurement of the resonance energy transfer from the anti-mouse-IgG-Eu-Chelate to the streptavidine-XL665. Therefore, the fluorescence emissions at 620 nm and 665 nm after excitation at 350 nm was measured in a HTRF reader, e.g. a Rubystar (BMG Labtechnologies, Offenburg, Germany) or a Viewlux (Perkin-Elmer). The ratio of the emissions at 665 nm and at 622 nm was taken as the measure for the amount of phosphorylated substrate.

SMILES	IC50 [1] [nM]	IC50 (phospho-AKT at S473) [nM]	IC50 [2] [nM]	IC50 [3] [nM]	IC50 (p-4E-BP1 at T70) [nM]	IC50 [4] [nM]
NC1(c2ccc(-c3nc4c(-c5cc[nH]n5)cc(Cl)nn4c3-c3ccccc3)cc2)CCC1 [Example 19, 1-{4-[6-Chloro-3-phenyl-8-(1H-pyrazol-3-yl)imidazo[1,2-b]pyridazin-2-yl]phenyl} cyclobutanamine]	1800	390	42	2000	5100	15
CNC(=O)c1cc(-c2cc[nH]n2)c2nc(-c3ccc(C4(N)CCC4)cc3)c(-c3ccccc3)n2n1 [Example 65, 2-[4-(1-Aminocyclobutyl)phenyl]-N-methyl-3-phenyl-8-(1H-pyrazol-3-yl)imidazo[1,2-b]pyridazine-6-carboxamide]	280	1.4	2.6	470	22	3.1
COc1ccc2nc(-c3ccc(C4(N)CCC4)cc3)c(-c3ccccc3)n2n1 [Example 6, 1-[4-(6-Methyloxy-3-phenylimidazo[1,2-b]pyridazin-2-yl)phenyl]cyclobutanamine]	1200	210	80	1100	1300	4.2
Cc1c(Cl)nn2c(-c3ccccc3)c(-c3ccc(C4(N)CCC4)cc3)nc2c1C [Example 50, 1-[4-(6-Chloro-7,8-dimethyl-3-phenylimidazo[1,2-b]pyridazin-2-yl)phenyl]-cyclobutanamine]	1800	450	27	1700	2000	44
C=Cc1cc(OC)c2nc(-c3ccc(C4(N)CCC4)cc3)c(-c3ccccc3)n2n1 [Example 18, 1-[4-(8-Methoxy-3-phenyl-6-vinylimidazo[1,2-b]pyridazin-2-yl)phenyl]-cyclobutanamine]	1100	180	53	1600	710	86
CCc1cc(-c2cc[nH]n2)c2nc(-c3ccc(C4(N)CCC4)cc3)c(-c3ccccc3)n2n1 [Example 21, 1-{4-[6-Ethyl-3-phenyl-8-(1H-pyrazol-3-yl)imidazo [1,2-b]pyridazin-2-yl]phenyl}cyclobutanamine]	1800	420	130	2000	1700	73
CCOc1cc(C(N)=O)nn2c(-c3ccccc3)c(-c3ccc(C4(N)CCC4)cc3)nc12 [Example 61, 2-[4-(1-Aminocyclobutyl)phenyl]-8-ethoxy-3-phenylimidazo[1,2-b]pyridazine-6-carboxamide]	56	0.5	3.7	33	2	4.1
CNC(=O)c1ccc2nc(-c3ccc(C4(N)CCC4)cc3)c(-c3ccccc3)n2n1 [Example 68, 2-[4-(1-Aminocyclobutyl)phenyl]-N-methyl-3-phenylimidazo[1,2-b]-pyridazine-6-carboxamide]	680	3.7	66	1500	5300	21
NC1(c2ccc(-c3nc4ccc(Br)nn4c3-c3ccccc3)cc2)CCC1 [Example 41, 1-[4-(6-Bromo-3-phenylimidazo[1,2-b]pyridazin-2-yl)phenyl]cyclobutanamine]	> 10000	> 10000	66	> 10000	> 10000	33
NC1(c2ccc(-c3nc4c(OCc5ccccc5)cc(Cl)nn4c3-c3ccccc3)cc2)CCC1 [Example 29, 1-{4-[8-(Benzyloxy)-6-chloro-3-phenylimidazo[1,2-b]pyridazin-2-yl]phenyl}cyclobutanamine]	1700	210	78	2000	1300	56
CSc1nn2c(-c3ccccc3)c(-c3ccc(C4(N)CCC4)cc3)nc2c(C)c1C [Example 54, 1-{4-[7,8-Dimethyl-6-(methylsulfanyl)-3-phenylimidazo[1,2-b]pyridazin-2-yl]-phenyl}cyclobutanamine]	1800	690	35	740	1600	12
CS(=O)(=O)Nc1ccc2nc(-c3ccc(C4(N)CCC4)cc3)c(-c3ccccc3)n2n1 [Example 45, N-{2-[4-(1-Aminocyclobutyl)phenyl]-3-phenylimidazo[1,2-b]pyridazin-6-yl} methanesulfonamide]	> 10000	> 10000	6600	> 10000	> 10000	1200
CCOC(=O)c1ccc2nc(-c3ccc(C4(N)CCC4)cc3)c(-c3ccccc3)n2n1 [Example 4, Ethyl 2-[4-(1-aminocyclobutyl)phenyl]-3-phenylimidazo[1,2-b]pyridazine-6-carboxylate]	1800	610	190	2400	2400	85
COC(=O)COc1ccc2nc(-c3ccc(C4(N)CCC4)cc3)c(-c3ccccc3)n2n1 [Example 80, Methyl ({2-[4-(1-aminocyclobutyl)phenyl]-3-phenylimidazo[1,2-b]pyridazin-6-yl}oxy)acetate]	10000	190	610	10000	9800	96
Cn1nccc1-c1cc(Cl)nn2c(-c3ccccc3)c(-c3ccc(C4(N)CCC4)cc3)nc12 [Example 23, 1-{4-[6-Chloro-8-(1-methyl-1H-pyrazol-5-yl)-3-phenylimidazo[1,2-b]pyridazin-2-yl]phenyl} cyclobutanamine]	2100	1400	190	2200	2900	1200
COc1cc(-c2ccncc2)c2nc(-c3ccc(C4(N)CCC4)cc3)c(-c3ccccc3)n2n1 [Example 75, 1-{4-[6-Methoxy-3-phenyl-8-(pyridin-4-yl)imidazo[1,2-b]pyridazin-2-yl]phenyl}cyclobutanamine]	1800	230	100	1800	1500	21
COC(=O)c1cc(-c2ncc[nH]2)c2nc(-c3ccc(C4(N)CCC4)cc3)c(-c3ccccc3)n2n1 [Example 58, Methyl 2-[4-(1-aminocyclobutyl)phenyl]-8-(1H-imidazol-2-yl)-3-phenylimidazo[1,2-b]pyridazine-6-carboxylate]	> 10000	1000	280	> 10000	10000	110
NC1(c2ccc(-c3nc4c(-c5ccc(F)cc5)cc(-c5ccc(F)cc5)nn4c3-c3ccccc3)cc2)CCC1 [Example 42, 1-{4-[6,8-Bis(4-fluorophenyl)-3-phenylimidazo[1,2-b]pyridazin-2-yl]phenyl}cyclobutanamine]	4200	120	20000	2800	2600	20000
COC(=O)c1ccc2nc(-c3ccc(C4(N)CCC4)cc3)c(-c3ccccc3)n2n1 [Example 39, Methyl 2-[4-(1-aminocyclobutyl)phenyl]-3-phenylimidazo[1,2-b]pyridazine-6-carboxylate]	6100	280	160	> 10000	7500	38
CNC(=O)c1ccnn2c(-c3ccccc3)c(-c3ccc(C4(N)CCC4)cc3)nc12 [Example 63, 2-[4-(1-Aminocyclobutyl)phenyl]-N-methyl-3-phenylimidazo[1,2-b]pyridazine-8-carboxamide]	760	3.8	120	1600	0.3	46
NC1(c2ccc(-c3nc4c(-c5cc[nH]n5)cc(C(=O)NCCO)nn4c3-c3ccccc3)cc2)CCC1 [Example 71, 2-[4-(1-Aminocyclobutyl)phenyl]-N-(2-hydroxyethyl)-3-phenyl-8-(1H-pyrazol-3-yl)imidazo[1,2-b]pyridazine-6-carboxamide]	780	92	20	2000	10000	11
NC1(c2ccc(-c3nc4c(-c5cc[nH]n5)ccnn4c3-c3ccccc3)cc2)CCC1 [Example 27, 1-{4-[3-Phenyl-8-(1H-pyrazol-3-yl)imidazo[1,2-b]pyridazin-2-yl]phenyl}cyclobutanamine]	1800	36	29	1800	480	15
CCc1ccc2nc(-c3ccc(C4(N)CCC4)cc3)c(-c3ccccc3)n2n1 [Example 2, 1-[4-(6-Ethyl-3-phenylimidazo[1,2-b]pyridazin-2-yl)phenyl]cyclobutanamine]	1700	310	97	1700	2100	65
CCOc1cc(C(=O)OC)nn2c(-c3ccccc3)c(-c3ccc(C4(N)CCC4)cc3)nc12 [Example 57, Methyl 2-[4-(1-aminocyclobutyl)phenyl]-8-ethoxy-3-phenylimidazo[1,2-b]pyridazine-6-carboxylate]	2100	250	29	9400	1800	25
